# Source: article PMC12311725, “Identification of Ginsentide-like Peptides from Cacao Beans with Oxidative Stress Protection” (ACS Omega, 2025)
# Where a SMILES comes first, the peptide text is derived from it. Bridges are numbered along the chain shown (N, C = ends).
# Legend:
# [1] = Peptide stability assay with trypsin (RP-HPLC); type: in vitro ADME; details: isolated enzyme trypsin, trypsin in 0.1 M ammonium bicarbonate buffer pH 8, 37 °C, peptide 0.1 M [sic], RP-HPLC peak area as % of initial, read-out: structural integrity retained (percentage of peptide remaining) after incubation with trypsin
# Description: Stability studies were conducted using purified cocotide tC1 (0.1 M) and S-alkylated tC1 (iodoacetamido) under specific buffer conditions. Pepsin stability was assessed by incubating the samples in a mixture of pepsin at a ratio of 50:1 (w/v) in 0.2 M HCl at 37 °C. For trypsin stability, the samples were treated with trypsin in 0.1 M ammonium bicarbonate buffer (pH 8) at 37 °C. Analysis of stability assays involved collecting samples at various time points, which were then analyzed by reversed-phase high-performance liquid chromatography (RP-HPLC) using a linear gradient of mobile phase A (0.05% trifluoroacetic acid in water) and mobile phase B (0.05% trifluoroacetic acid in acetonitrile) on an Aeris Peptide XB-C18 column (Phenomenex). The stability results were expressed as a percentage of the initial concentration and determined by the peak area of the HPLC profile.
# 7 Proteolytic stability assays of cocotide tC1. Cocotide tC1 was incubated with either pepsin or trypsin at 37 °C for up to 6 h. S-alkylated tC1 was used as the control. At different time points, samples of cocotide tC1 and the control were quantified using reversed-phase high pressure liquid chromatography (RP-HPLC). The relative peak areas of the RP-HPLC profiles were used to quantify the percentage of peptides remaining after incubation with pepsin or trypsin.
# [2] = Ferric Reducing Antioxidant Power (FRAP) assay
# Description: OxiSelect Ferric Reducing Antioxidant Power (FRAP) Assay Kit (Cell Biolabs, USA) was used to measure the antioxidant potential of cocotide tC1. The assay was performed according to the manufacturer’s instructions .
# [3] = Post-translational modification analysis of methionine oxidation (tims-TOF MS/MS); type: physicochemical; details: native peptide, during extraction and purification
# Description: The primary sequences of cocotides from Theobroma cacao aqueous extracts were determined by LC-MS/MS sequencing as described previously. The C18-SPE fractionated Theobroma cacao aqueous extracts were redissolved in 20 mM DTT at 37 °C for 1 h followed by S-alkylation with 200 mM iodoacetamide at 37 °C for 1 h. The mixture was desalted with a C18 Zip-tip and subjected to analysis on a trapped ion mobility spectrometer-time-of-flight tandem mass spectrometer (tims-TOF MS/MS). Data analysis was performed using PEAKS Studio (version 11, Bioinformatics Solutions, Waterloo, ON, Canada) with a precursor ion tolerance of 10 ppm and a fragment ion tolerance of 0.05 Da. Carbamidomethylation at Cys was set as a fixed modification. Deamidation of […], oxidation of Met, and acetylation at Lys and N-term were set as variable modification. Peptide sequencing was performed using PEAKS DB protein identification, which integrates database search of an in-house ginsentide-like peptide library derived from Theobroma cacao transcriptome with de novo sequencing.
# HaCaT cells = experiment: Tandem-mass-tag (TMT) quantitative proteomic profiling; type: cell-based, human; details: serum starved overnight, 10 μM tC1 for 24 h, versus untreated
# Description: Tandem-mass tag quantitative proteomic profiling was performed according to the manufacturer’s instructions . Briefly, HaCaT cells treated with or without cocotide tC1 were harvested and lysed by sonication for 3 min at 25% amplitude with a 2-s-on, 3-s-off pulse time in 8 M urea and 10 mM ammonium bicarbonate supplemented with a protease inhibitor. After centrifugation, quantification of the total proteins was performed by the BCA method. A total of 100 μg of protein from each condition was subjected to in-solution digestion before labeling the resultant peptides using the TMT-10plex Isobaric Label Reagent Set (Thermo Scientific, Rockford, IL, USA) according to the manufacturer’s protocol. […] Eluate was collected in 1 min fractions and strategically pooled via concatenation based on absorbance measurements at a wavelength of 280 nm. […]
# The fractionated peptides were separated and analyzed using a Dionex Ultimate 3000 RSLCnano system coupled to a Q Exactive instrument (Thermo Fisher Scientific, MA, USA). […] Peptides were then analyzed on a Q Exactive apparatus with an EASY nanospray source (Thermo Fisher Scientific) at an electrospray potential of 1.8 kV. […] Raw data files were processed, searched, and TMT 10-plex was selected as the quantification method using Peaks Studio 11 with the UniProt human proteome (Proteome ID: UP000005640) as the reference proteome. […]
smiles,measurement,setting,value
"CC[C@H](C)[C@@H]1NC(=O)CNC(=O)[C@H](CCSC)NC(=O)[C@@H]2CCCN2C(=O)[C@H](Cc2ccc(O)cc2)NC(=O)[C@H](CC(C)C)NC(=O)[C@@H]2CSSC[C@@H]3NC(=O)[C@H](Cc4ccccc4)NC(=O)CNC(=O)CNC(=O)[C@H](C)NC(=O)[C@H](CO)NC(=O)[C@H](CC(C)C)NC(=O)[C@@H](N)CSSC[C@@H]4NC(=O)[C@H](CSSC[C@H](NC1=O)C(=O)N[C@@H](Cc1ccc(O)cc1)C(=O)NCC(=O)N[C@@H](CO)C(=O)NCC(=O)N[C@H](C(=O)O)CSSC[C@H](NC(=O)[C@H](CC(N)=O)NC(=O)CNC4=O)C(=O)NCC(=O)N2)NC(=O)[C@H](CC(=O)O)NC(=O)[C@H](CCSC)NC(=O)[C@@H]1CCCN1C(=O)[C@H](CC(N)=O)NC(=O)[C@H](Cc1ccccc1)NC(=O)[C@H](CCSC)NC3=O [cocotide tC1] (H-CLSAGGFCMFNPMDCCGNCGCLYPMGICYGSGC-OH; disulfide 1-16, 8-21, 15-28, 19-33; N-terminus and C-terminus assumed)",remaining at 6 h,[1],> 80%
same,antioxidant power relative to ascorbic acid,[2]; FRAP value of tC1 versus ascorbic acid (positive control),152 fold
same,FRAP value,[2]; OxiSelect FRAP Assay Kit,55.1 Fe^2+ μM/μM
same,Met19 and Met25 oxidized to Met(O),[3],< 5%
same,methionine at position 9 converted to Met(O),[3],27%
same,"number of downregulated proteins (minimum 2-fold, significance value >15)",HaCaT cells,3 proteins
same,"number of upregulated proteins (minimum 2-fold, significance value >15)",HaCaT cells,19 proteins
